For data set [1], the target named is T1, CSNK2A (CSNK2A2-NLuc) (Homo sapiens, UniProt P19784).
T1 construct: expressed in transfected cells; host or cells: HEK293
The experiment in a line: In-cell CSNK2A target engagement by NanoBRET assay. The class given is cell-based. The following applies: for IC50: In-cell target engagement by NanoBRET assay, HEK293 cells; for Designation: active / inactive analogs with 10-fold differences in IC50; for fold increase in CSNK2A potency: compared to 4q; for fold decrease in CSNK2A potency: compared to the parent compounds (4s and 4w). On the technique in general: BRET reads energy transfer from a luciferase to a nearby fluorophore.
Method: A transfection complex of DNA at 10 µg/mL was created, consisting of 9 µg/mL of carrier DNA (Promega, Madison, WI, USA) and 1 µg/mL of CSNK2A2-NLuc fusion DNA in Opti-MEM without serum (Gibco). FuGENE HD (Promega) was added at 30 µL/mL to form a lipid/DNA complex. The solution was then mixed and incubated at room temperature for 20 min. […] The following day, the media was removed via aspiration and replaced with 85 μL of Opti-MEM without phenol red. A total of 5 μL per well of 20×-NanoBRET Tracer K10 (Promega) at 5 μM in Tracer Dilution Buffer (Promega N291B) was added to all wells, except the “no tracer” control wells. Test compounds (10 mM in DMSO) were diluted 100× in Opti-MEM media to prepare stock solutions and evaluated at eleven concentrations. A total of 10 μL per well of the 10-fold test compound stock solutions (final assay concentration of 0.1% DMSO) was added. […] 96-well plates containing cells with NanoBRET Tracer K10 and test compounds (100 µL total volume per well) were equilibrated (37 °C/5% CO2) for 2 h. The plates were cooled to room temperature for 15 min. […] A total of 50 μL of the 3× substrate/extracellular NL inhibitor were added to each well. The plates were read within 30 min on a GloMax Discover luminometer (Promega) equipped with 450 nm BP filter (donor) and 600 nm LP filter (acceptor) using 0.3 s integration time. Raw milliBRET (mBRET) values were obtained by dividing the acceptor emission values (600 nm) by the donor emission values (450 nm) and multiplying by 1000. […] The data were first normalized and then fit using Sigmoidal, 4PL binding curve in GraphPad Prism version 9.5.1 to determine IC50 values (Figure S1).

Data set [2] can be described thus: Kinetic solubility in PBS pH 7.4. The conditions noted are these: phosphate-buffered saline, pH 7.4, aqueous buffer, kinetic from dmso stock, PBS pH 7.4, 24 h. It is filed as physicochemical. The procedure: Kinetic solubility assay was conducted using 10 mM DMSO stocks of compounds in phosphate-buffered saline solution (PBS) at pH 7.4 by Analiza, Inc., Cleveland, OH, USA. […] The calculated values were corrected for the background nitrogen in the media and DMSO.

Converted amounts (≈) assume the structure as drawn. A value given as a limit tells only on which side of the number the result lay.

T1 sequence (P19784 whole entry): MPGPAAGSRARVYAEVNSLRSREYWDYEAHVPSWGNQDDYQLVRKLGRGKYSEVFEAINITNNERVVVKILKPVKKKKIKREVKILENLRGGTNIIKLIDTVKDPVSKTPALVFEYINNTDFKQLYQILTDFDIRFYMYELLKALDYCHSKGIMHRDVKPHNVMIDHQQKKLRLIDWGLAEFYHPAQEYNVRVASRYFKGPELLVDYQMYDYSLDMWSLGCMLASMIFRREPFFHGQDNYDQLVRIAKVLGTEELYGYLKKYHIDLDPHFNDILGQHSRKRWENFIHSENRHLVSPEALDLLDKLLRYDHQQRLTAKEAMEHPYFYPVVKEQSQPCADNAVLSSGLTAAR

What is called IC50 is the point on the concentration scale where inhibition reaches its midpoint. High values mean weaker potency in that assay, low ones greater potency in that assay. One may read the solubility as the concentration that dissolves in the medium under given conditions. A higher solubility goes with a readily soluble substance. In general, melting point refers to the temperature of the solid-liquid transition. Compound `O=C(O)c1ccc2c(c1)nc(NCc1ccccc1Cl)c1ncncc12` [Compound 4a, 5-((2-chlorobenzyl)amino)pyrimido[4,5-c]quinoline-8-carboxylic acid] returned a melting point of 193 to 198 °C. Besides, in data set [1], inhibition was half-maximal at 290 nM (IC50). This compound also came in with a solubility at 24 h in data set [2] of 140 µM (≈ 51.1 µg/mL).
With `CN1CCC(CNc2nc3cc(C(=O)O)ccc3c3cncnc23)CC1` [Compound 4ab, 5-(((1-methylpiperidin-4-yl)methyl)amino)pyrimido[4,5-c]quinoline-8-carboxylic acid], the melting point was 205 to 208 °C. For the same compound, it took 48700 nM to reach half-maximal inhibition in data set [1] (IC50). In addition, the concentration in solution in data set [2] (solubility at 24 h) was 220 µM (≈ 77.3 µg/mL).
The compound `CN(Cc1ccccc1)c1nc2cc(C(=O)O)ccc2c2cncnc12` [Compound 4ac, 5-(benzyl(methyl)amino)pyrimido[4,5-c]quinoline-8-carboxylic acid] yielded a melting point of 200 to 204 °C. Moreover, in data set [1], the IC50 worked out at 250 nM and the Designation result was “Active”. Also, the solubility at 24 h in data set [2] stood at 180 µM (≈ 62 µg/mL).
In the case of `CN(CC1CCCCC1)c1nc2cc(C(=O)O)ccc2c2cncnc12` [Compound 4ad, 5-((cyclohexylmethyl)(methyl)amino)pyrimido[4,5-c]quinoline-8-carboxylic acid], the melting point lay within 229 to 231 °C. Moreover, in data set [1], the IC50 was found to be 2400 nM and the Designation entry is on record as “Inactive”. Further, in data set [1] (compared to unmethylated parent amine 4t), the “fold less active on CSNK2A” value was determined as 17 fold. Further, the concentration in solution in data set [2] (solubility at 24 h) was 200 µM (≈ 70.1 µg/mL).
Compound `CC(Nc1nc2cc(C(=O)O)ccc2c2cncnc12)c1ccccc1` (stereo not shown) [Compound 4ae, 5-((1-phenylethyl)amino)pyrimido[4,5-c]quinoline-8-carboxylic acid] yielded a melting point of 228 to 232 °C. Also, in data set [1], the midpoint of inhibition, the IC50, lay at 1900 nM and the Designation result is given as “Inactive”. The same compound had a solubility at 24 h in data set [2] of 180 µM (≈ 62 µg/mL).
Regarding `O=C(O)c1ccc2c(c1)nc(N[C@H]1CCc3ccccc31)c1ncncc12` [Compound 4ag, (S)-5-((2,3-dihydro-1H-inden-1-yl)amino)pyrimido[4,5-c]quinoline-8-carboxylic acid], the melting point lay in the range of 252 to 255 °C. In data set [1], the midpoint of inhibition, the IC50, lay at 300 nM.
In the same order, the values of `O=C(O)c1ccc2c(c1)nc(N[C@@H]1CCc3ccccc31)c1ncncc12` [Compound 4ah, (R)-5-((2,3-dihydro-1H-inden-1-yl)amino)pyrimido[4,5-c]quinoline-8-carboxylic acid] are 260 to 262 °C and above 10000 nM.
With `O=C(O)c1ccc2c(c1)nc(N1CCc3ccccc3C1)c1ncncc12` [Compound 4ai, 5-(3,4-dihydroisoquinolin-2(1H)-yl)pyrimido[4,5-c]quinoline-8-carboxylic acid], the melting point lay in the range of 204 to 208 °C. Besides, in data set [1], the concentration for half-maximal inhibition (IC50) is 1200 nM and the Designation result is recorded as “Inactive”. The amount in solution in data set [2] (solubility at 24 h) came to 160 µM (≈ 57 µg/mL).
In turn, `O=C(O)c1ccc2c(c1)nc(NCc1cccc(Cl)c1)c1ncncc12` [Compound 4b, 5-((3-chlorobenzyl)amino)pyrimido[4,5-c]quinoline-8-carboxylic acid] displayed a melting point of 240 to 243 °C. Besides, the midpoint of inhibition in data set [1], the IC50, lay at 370 nM. In data set [2], this compound showed a solubility at 24 h of 150 µM (≈ 54.7 µg/mL).
On to `COc1ccccc1CNc1nc2cc(C(=O)O)ccc2c2cncnc12` [Compound 4d, 5-((2-methoxybenzyl)amino)pyrimido[4,5-c]quinoline-8-carboxylic acid], for which the melting point was 230 to 233 °C. The compound also yielded a half-inhibitory concentration (IC50) in data set [1] of 1000 nM. Moreover, the concentration in solution in data set [2] (solubility at 24 h) was 140 µM (≈ 50.5 µg/mL).
In the same order, the values of `COc1cccc(CNc2nc3cc(C(=O)O)ccc3c3cncnc23)c1` [Compound 4e, 5-((3-methoxybenzyl)amino)pyrimido[4,5-c]quinoline-8-carboxylic acid] are 210 to 214 °C, 600 nM and 170 µM (≈ 61.3 µg/mL).
In the same order, the values of `COc1ccc(CNc2nc3cc(C(=O)O)ccc3c3cncnc23)cc1` [Compound 4f, 5-((4-methoxybenzyl)amino)pyrimido[4,5-c]quinoline-8-carboxylic acid] are 246 to 247 °C, 280 nM and 160 µM (≈ 57.7 µg/mL).
In turn, `Cc1ccc(CNc2nc3cc(C(=O)O)ccc3c3cncnc23)cc1` [Compound 4h, 5-((4-methylbenzyl)amino)pyrimido[4,5-c]quinoline-8-carboxylic acid] registered a melting point of 201 to 204 °C. The IC50 in data set [1] is 340 nM. Besides, in data set [2], the concentration in solution (solubility at 24 h) came to 170 µM (≈ 58.5 µg/mL).
Take `O=C(O)c1ccc2c(c1)nc(NCc1ccc(C(F)F)cc1)c1ncncc12` [Compound 4i, 5-((4-(difluoromethyl)benzyl)amino)pyrimido[4,5-c]quinoline-8-carboxylic acid]: the melting point was 250 to 255 °C. In addition, inhibition in data set [1] was half-maximal at 470 nM (IC50). This compound came in with a solubility at 24 h in data set [2] of 150 µM (≈ 57.1 µg/mL).
Compound `O=C(O)c1ccc2c(c1)nc(NCc1ccc(C(F)(F)F)cc1)c1ncncc12` [Compound 4j, 5-((4-(trifluoromethyl)benzyl)amino)pyrimido[4,5-c]quinoline-8-carboxylic acid] gave a melting point of 245 to 248 °C. The IC50 in data set [1] stood at 640 nM. Besides, the solubility at 24 h in data set [2] stood at 160 µM (≈ 63.7 µg/mL).
In turn, `N#Cc1ccc(CNc2nc3cc(C(=O)O)ccc3c3cncnc23)cc1` [Compound 4k, 5-((4-cyanobenzyl)amino)pyrimido[4,5-c]quinoline-8-carboxylic acid] yielded a melting point of 270 to 275 °C. Moreover, in data set [1], half-maximal inhibition (IC50) was put at 530 nM. Moreover, the solubility at 24 h in data set [2] is 160 µM (≈ 56.9 µg/mL).
For the compound `O=C(O)c1ccc2c(c1)nc(NCc1ccc(-c3ccc(Cl)cc3)cc1)c1ncncc12` [Compound 4l, 5-(((4′-chloro-[1,1′-biphenyl]-4-yl)methyl)amino)pyrimido[4,5-c]quinoline-8-carboxylic acid], the melting point fell in the range of 246 to 248 °C. In data set [1], the IC50 was 1900 nM. The compound also came in with a solubility at 24 h in data set [2] below 1 µM.
The compound `O=C(O)c1ccc2c(c1)nc(NCc1ccc3ccccc3c1)c1ncncc12` [Compound 4m, 5-((naphthalen-2-ylmethyl)amino)pyrimido[4,5-c]quinoline-8-carboxylic acid] showed a melting point of 250 to 253 °C. In data set [1], this compound had an IC50 of 500 nM. This compound yielded a solubility at 24 h in data set [2] of 5 µM (≈ 1.9 µg/mL).
Regarding `O=C(O)c1ccc2c(c1)nc(NCc1ccccn1)c1ncncc12` [Compound 4n, 5-((pyridin-2-ylmethyl)amino)pyrimido[4,5-c]quinoline-8-carboxylic acid], the melting point lay within 250 to 254 °C. This compound displayed an IC50 in data set [1] of 8000 nM. In data set [2], this compound yielded a solubility at 24 h of 140 µM (≈ 46.4 µg/mL).
Turning to `O=C(O)c1ccc2c(c1)nc(NCc1cccnc1)c1ncncc12` [Compound 4o, 5-((pyridin-3-ylmethyl)amino)pyrimido[4,5-c]quinoline-8-carboxylic acid], the melting point lay in the range of 270 to 274 °C. Further, in data set [1], the midpoint of inhibition, the IC50, lay at 6000 nM. Moreover, the concentration in solution in data set [2] (solubility at 24 h) came to 200 µM (≈ 66.3 µg/mL).
In turn, `O=C(O)c1ccc2c(c1)nc(NCc1ccncc1)c1ncncc12` [Compound 4p, 5-((pyridin-4-ylmethyl)amino)pyrimido[4,5-c]quinoline-8-carboxylic acid] displayed a melting point of 274 to 276 °C. Moreover, 14000 nM corresponded to half-maximal inhibition in data set [1] (IC50). In data set [2], this compound had a solubility at 24 h of 200 µM (≈ 66.3 µg/mL).
In turn, `CC(C)CNc1nc2cc(C(=O)O)ccc2c2cncnc12` [Compound 4q, 5-(isobutylamino)pyrimido[4,5-c]quinoline-8-carboxylic acid] displayed a melting point of 270 to 273 °C. In data set [1], this compound displayed an IC50 of 1200 nM. Moreover, the concentration in solution in data set [2] (solubility at 24 h) came to 170 µM (≈ 50.4 µg/mL).
In turn, `O=C(O)c1ccc2c(c1)nc(NCC1CCC1)c1ncncc12` [Compound 4r, 5-((cyclobutylmethyl)amino)pyrimido[4,5-c]quinoline-8-carboxylic acid] showed a melting point of 265 to 268 °C. In addition, in data set [1], the IC50 came to 410 nM and the “fold increase in CSNK2A potency” value was found to be 3 fold. In data set [2], this compound displayed a solubility at 24 h of 220 µM (≈ 67.8 µg/mL).
In turn, `O=C(O)c1ccc2c(c1)nc(NCC1CCCC1)c1ncncc12` [Compound 4s, 5-((cyclopentylmethyl)amino)pyrimido[4,5-c]quinoline-8-carboxylic acid] came in with a melting point of 261 to 264 °C. Further, in data set [1], 320 nM corresponded to half-maximal inhibition (IC50) and the “fold increase in CSNK2A potency” value was 3 fold. The compound also returned a solubility at 24 h in data set [2] of 210 µM (≈ 67.7 µg/mL).
Take `CC(C)(C)CNc1nc2cc(C(=O)O)ccc2c2cncnc12` [Compound 4v, 5-(neopentylamino)pyrimido[4,5-c]quinoline-8-carboxylic acid]: the melting point lay within 282 to 285 °C. The compound further displayed an IC50 in data set [1] of 870 nM. The concentration in solution in data set [2] (solubility at 24 h) was 190 µM (≈ 59 µg/mL).
In turn, `O=C(O)c1ccc2c(c1)nc(NCC1CCOC1)c1ncncc12` (stereo not shown) [Compound 4y, 5-(((tetrahydrofuran-3-yl)methyl)amino)pyrimido[4,5-c]quinoline-8-carboxylic acid] came in with a melting point of 160 to 164 °C. Also, in data set [1], the half-maximal inhibitory concentration (IC50) was 3100 nM and the “fold decrease in CSNK2A potency” value came to 10 fold. Also, the solubility at 24 h in data set [2] worked out at 140 µM (≈ 45.4 µg/mL).
As for `O=C(O)c1ccc2c(c1)nc(NCC13CCC(CC1)O3)c1ncncc12` [Compound 4z, 5-(((7-oxabicyclo[2.2.1]heptan-1-yl)methyl)amino)pyrimido[4,5-c]quinoline-8-carboxylic acid], the melting point lay within 280 to 284 °C. In data set [1], the IC50 came out at 1400 nM and the “fold decrease in CSNK2A potency” value came out at 10 fold. In addition, the solubility at 24 h in data set [2] was 220 µM (≈ 77.1 µg/mL).

Source of the values: publication PMC10976173, “Synthesis of 5-Benzylamino and 5-Alkylamino-Substituted Pyrimido[4,5-c]quinoline Derivatives as CSNK2A Inhibitors with Antiviral Activity” (Pharmaceuticals, 2024).
